“Also recorded” adds a separate entry of the source.
Columns and labels:
Format in all cases: cell-based, human
EGR1 gene transcript [1] = assay: Quantitative real-time PCR, EGR1 in LNCaP cells
Procedure: (§1) Quantitative Real-Time PCR. All quantitative real-time assays were conducted with an Applied Biosystems 7900HT instrument and reagents. Cells were grown to 70% confluence in […] dishes prior to RNA purification using the Trizol reagent (Invitrogen Life Technologies). Experiments utilizing U0126 were performed as above, except that cells were treated with DMSO (vehicle) or 5 uM U0126 for 2 hours, then grown in the presence or absence of CXCL12. For all experiments, one microgram of RNA was reverse transcribed by use of Superscript III reverse transcriptase (Invitrogen, Carlsbad, Calif.). The resulting cDNA was diluted 1:100. Real-time PCR was performed by use of Assays on Demand (Applied BioSystems, Foster City, Calif.) according to the manufacturer's instructions, except that Real Time Ready with Rox passive dye (QBioGene, Carlsbad, Calif.) was used in place of TaqMan Universal PCR Master Mix. […] Cycle numbers to threshold were calculated by subtracting averaged control from averaged experimental values, and Fold Gene Expression was calculated by raising […]. […]
(§2) Quantitative Real-Time PCR. All quantitative real-time assays were conducted as previously described with an Applied Biosystems 7900HT instrument and reagents (see, e.g., Begley L A, et al., J Biol. Chem. 2007 Sep. 14; 282(37):26767-74; herein incorporated by reference in its entirety). […]

EGR1 gene transcript [2] = assay: Quantitative real-time PCR, EGR1 in N15C6 cells
Procedure: as §1, §2

[3] = system: LNCaP prostate epithelial cells; assay: Proliferation assay (cell counts), LNCaP
Procedure: Proliferation assays. Cellular proliferation was assessed after plating cells at 50 000 cell/well in triplicate in six-well plates and counting cells after 24 and 96 h of incubation in complete media, serum-free media or serum-free prostate stromal fibroblast conditioned media, as described previously (Macoska J A, et al., (2004) Cancer Genet. Cytogenet. 154, 36-43; incorporated herein by reference in its entirety). Averages and standard deviations of cell number were calculated for each time point under each media condition. To assess the effects of exogenous CXCL12 on cellular proliferation, recombinant human SDF1 alpha/CXCL12 (R & D Systems, 350-NS) was added at the desired concentration in 1 mL SF HIE (or 1 mL SF HIE alone for control) to each well. The cells were counted at 24 and 96 h growth and re-fed at 48 and 72 h growth. Cell counts were normalized to 50 000 cells at 24 h to account for any plating discrepancies.
Proliferation Assays. Cellular proliferation was assessed after plating cells at 50,000 cell/well in triplicate in six well plates and counting cells after 24 and 96 hours of incubation as described previously (see, e.g., Macoska J A, et al., 2004 Cancer Genet. Cytogenet. 154, 36-43; incorporated herein by reference in its entirety). To assess the effects of exogenous CXCL12 on cellular proliferation, recombinant human SDF1 alpha/CXCL12 (R&D Systems, 350-NS) was added at the desired concentration in 1 ml SF HIE (or 1 ml SF HIE alone for control) to each well. The cells were re-fed at 48 and 72 hours growth and counted at 24 and 96 hours growth. Cell counts were normalized to 50,000 cells at 24 hours to account for any plating discrepancies. Averages and standard deviations of cell number were calculated for each time point under each media condition. Experiments utilizing U0126 were performed as above, except that cells were treated after plating for 2 hours with either DMSO (vehicle) or 5 uM U0126 before addition of CXCL12. Cells were maintained in media containing DMSO or U0126 for the entirety of the experiment. For the antibody blockade experiments, cells were plated at 10,000 cells per well in triplicate in 24 well dishes and pre-incubated with mouse IgG2aκ (BD Pharmingen 555571) or mouse anti-CXCR4 (BD Pharmingen 555971) at 1 ug/ml for 1 hour prior to CXCL12 addition. Cells were maintained in media containing appropriate antibodies for the entirety of the experiment, and cells were counted at 24 and 96 hours as above.
(§3) Proliferation Assays. Cellular proliferation was assessed after plating cells at 50,000 cell/well in triplicate in six well plates and counting cells after 24 and 96 hours of incubation as described previously (see, e.g., Begley L, et al., Genes Chromosomes Cancer. 2006 February; 45(2): 136-46; herein incorporated by reference in its entirety). To assess the effects of exogenous CXCL5 on cellular proliferation, recombinant human CXCL5 (R&D Systems, 254-X) was added at the desired concentration in 2 ml SF media (or 2 ml SF media alone for control) to each well. The cells were re-fed at 24 hours growth and counted at 24 and 96 hours growth. Cell counts were normalized to 50,000 cells at 24 hours to account for any plating discrepancies. Averages and standard deviations of cell number were calculated for each time point under each media condition. For the antibody blockade experiments, 10,000 cells per well were plated in triplicate in 24 well dishes and preincubated with mouse anti-human CXCR2 (Biosource AHR1532X) or mouse antihuman CXCR4 (BD Pharmingen 555971) at 1 ug/ml for 1 hour prior to CXCL5 addition. Cells were maintained in media containing appropriate antibodies for the entirety of the experiment and were counted at 24 and 96 hours as above.

[4] = system: PC3 prostate epithelial cells; assay: Proliferation assay, PC3; conditions: 0.001-1 nM CXCL5, p<0.05
Procedure: as §3

Row | Molecule | effect on CXCL12-stimulated EGR1 gene transcription (EGR1 gene transcript [1]; 5 uM U0126 for 2 hours, then 50 pM CXCL12) | effect on CXCL12-stimulated EGR1 gene transcription (EGR1 gene transcript [2]; 5 uM U0126 for 2 hours, then 10 pM CXCL12) | effect on proliferative response to CXCL12 ([3]; co-treatment with U0126 (5 uM), 50 pM CXCL12) | effect of U0126 on the effect of CXCL5 (anticipated) ([3]; stated as anticipated) | EGR1 transcript versus vehicle-treated cells (EGR1 gene transcript [1]; only at the lowest CXCL5 concentration (10 pM) tested) | EGR1 transcript versus vehicle-treated cells (EGR1 gene transcript [2]; 1-100 pM CXCL5) | proliferation versus SF media alone ([3]; 0.001-1 nM CXCL5, p<0.05) | effect of CXCL5 on proliferation ([3]; CXCL5 1-10 pM) | cell proliferation compared to serum-free (SF HIE) media alone ([3]; add back of exogenous chemokine, 96 hours) | proliferation versus SF media alone [4]
1 | N#CC(=C(/N)Sc1ccccc1N)/C(C#N)=C(\N)Sc1ccccc1N [U0126] | ablates | ablated; also recorded: further dampens | not affected | will inhibit | – | – | – | – | – | –
2 | CXCL5: recombinant human CXCL5 (R&D Systems, 254-X), CXC-type chemokine | – | – | – | – | 2- to 3 fold | 4- to 8 fold | significantly higher | did not stimulate | stimulate | significantly higher
